Assay results published in ChEMBL document CHEMBL3991601, “The target landscape of clinical kinase drugs” (Science, 2017).
Calls of active or inactive are those of the source.

Assays:
[1] = target: Activin receptor type-2B (Homo sapiens, UniProt Q13705)
[2] = target: Eukaryotic translation initiation factor 2-alpha kinase 1 (Homo sapiens, UniProt Q9BQI3)
[3] = target: T1, Dual specificity mitogen-activated protein kinase kinase 5 (Homo sapiens, UniProt Q13163)
T1 sequence (Q13163 whole entry): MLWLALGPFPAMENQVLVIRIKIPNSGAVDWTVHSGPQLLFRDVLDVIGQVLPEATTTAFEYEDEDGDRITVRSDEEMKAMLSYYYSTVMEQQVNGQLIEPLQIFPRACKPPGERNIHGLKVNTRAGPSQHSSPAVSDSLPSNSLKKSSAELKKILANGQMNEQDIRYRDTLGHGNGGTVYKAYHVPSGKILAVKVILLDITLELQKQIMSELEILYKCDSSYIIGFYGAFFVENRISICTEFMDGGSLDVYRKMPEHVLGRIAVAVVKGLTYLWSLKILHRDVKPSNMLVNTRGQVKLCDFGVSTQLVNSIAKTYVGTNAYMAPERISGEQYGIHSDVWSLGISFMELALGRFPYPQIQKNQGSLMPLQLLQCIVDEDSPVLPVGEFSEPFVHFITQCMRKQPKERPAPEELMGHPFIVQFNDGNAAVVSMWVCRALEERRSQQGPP

[4] = target: T2, Mitogen-activated protein kinase kinase kinase kinase 2 (Homo sapiens, UniProt Q12851)
T2 sequence (Q12851 whole entry): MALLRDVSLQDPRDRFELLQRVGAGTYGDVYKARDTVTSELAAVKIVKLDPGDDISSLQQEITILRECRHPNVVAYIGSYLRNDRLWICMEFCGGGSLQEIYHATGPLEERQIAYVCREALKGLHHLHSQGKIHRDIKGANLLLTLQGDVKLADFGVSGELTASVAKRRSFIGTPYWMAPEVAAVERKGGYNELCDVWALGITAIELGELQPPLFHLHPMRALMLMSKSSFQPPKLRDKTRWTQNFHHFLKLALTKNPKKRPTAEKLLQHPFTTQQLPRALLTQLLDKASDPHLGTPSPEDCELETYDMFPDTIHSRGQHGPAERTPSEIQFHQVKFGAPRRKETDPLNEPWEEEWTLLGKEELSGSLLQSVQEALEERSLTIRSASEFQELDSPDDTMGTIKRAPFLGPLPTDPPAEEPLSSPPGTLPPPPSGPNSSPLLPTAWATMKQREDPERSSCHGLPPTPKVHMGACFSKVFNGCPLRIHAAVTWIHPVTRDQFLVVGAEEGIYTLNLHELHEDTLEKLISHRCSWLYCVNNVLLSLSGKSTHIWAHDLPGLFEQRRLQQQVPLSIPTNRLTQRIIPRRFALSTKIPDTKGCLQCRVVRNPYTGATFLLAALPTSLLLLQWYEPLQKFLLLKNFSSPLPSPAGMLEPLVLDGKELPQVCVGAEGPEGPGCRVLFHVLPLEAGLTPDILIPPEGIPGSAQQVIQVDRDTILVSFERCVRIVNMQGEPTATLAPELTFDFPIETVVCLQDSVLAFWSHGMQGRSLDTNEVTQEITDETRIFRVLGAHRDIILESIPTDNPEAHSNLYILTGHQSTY

[5] = target: Mitogen-activated protein kinase 1 (Homo sapiens, UniProt P28482)
[6] = target: T3, Dynamin-like GTPase OPA1, mitochondrial (Homo sapiens, UniProt O60313)
T3 sequence (O60313 whole entry): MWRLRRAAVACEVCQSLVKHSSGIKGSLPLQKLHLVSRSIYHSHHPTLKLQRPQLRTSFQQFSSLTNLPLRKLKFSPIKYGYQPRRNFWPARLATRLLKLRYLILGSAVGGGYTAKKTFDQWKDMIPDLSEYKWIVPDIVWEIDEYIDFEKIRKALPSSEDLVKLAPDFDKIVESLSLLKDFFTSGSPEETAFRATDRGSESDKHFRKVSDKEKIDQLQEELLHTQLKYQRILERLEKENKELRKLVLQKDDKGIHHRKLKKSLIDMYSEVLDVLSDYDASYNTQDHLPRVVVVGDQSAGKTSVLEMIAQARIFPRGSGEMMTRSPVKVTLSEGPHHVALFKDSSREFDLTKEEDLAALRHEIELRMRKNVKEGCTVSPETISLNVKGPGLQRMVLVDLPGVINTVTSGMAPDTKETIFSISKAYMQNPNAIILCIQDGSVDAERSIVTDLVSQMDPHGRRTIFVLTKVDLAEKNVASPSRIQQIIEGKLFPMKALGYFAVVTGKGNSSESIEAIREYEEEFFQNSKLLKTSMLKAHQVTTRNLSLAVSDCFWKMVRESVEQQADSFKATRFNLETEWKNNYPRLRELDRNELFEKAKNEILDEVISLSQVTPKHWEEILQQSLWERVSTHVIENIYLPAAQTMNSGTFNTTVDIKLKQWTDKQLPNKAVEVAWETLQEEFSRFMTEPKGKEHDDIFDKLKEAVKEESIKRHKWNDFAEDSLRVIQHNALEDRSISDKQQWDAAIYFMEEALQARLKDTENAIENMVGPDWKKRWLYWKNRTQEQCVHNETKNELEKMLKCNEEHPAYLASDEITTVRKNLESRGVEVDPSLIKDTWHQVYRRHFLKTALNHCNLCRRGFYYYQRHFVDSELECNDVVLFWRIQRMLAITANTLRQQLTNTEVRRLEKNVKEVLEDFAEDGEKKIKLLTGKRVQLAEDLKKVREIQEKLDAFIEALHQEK

[7] = target: cAMP-dependent protein kinase catalytic subunit alpha (Homo sapiens, UniProt P17612)
[8] = target: T4, Rab-like protein 3 (Homo sapiens, UniProt Q5HYI8)
T4 sequence (Q5HYI8 whole entry): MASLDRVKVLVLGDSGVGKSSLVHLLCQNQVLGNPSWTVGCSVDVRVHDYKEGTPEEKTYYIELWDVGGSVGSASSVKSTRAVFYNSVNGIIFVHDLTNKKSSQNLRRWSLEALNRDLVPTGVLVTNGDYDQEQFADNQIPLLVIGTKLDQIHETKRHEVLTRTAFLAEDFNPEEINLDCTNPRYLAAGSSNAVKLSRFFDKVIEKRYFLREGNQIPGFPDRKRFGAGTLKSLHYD

[9] = target: Ribosomal protein S6 kinase beta-1 (Homo sapiens, UniProt P23443)
[10] = target: U5 small nuclear ribonucleoprotein 200 kDa helicase (Homo sapiens, UniProt O75643)

Measured: Kd
Also: in the data inactive means no Kd found up to 30 µM.

Ribosomal protein S6 kinase beta-1, sequence (P23443 whole entry): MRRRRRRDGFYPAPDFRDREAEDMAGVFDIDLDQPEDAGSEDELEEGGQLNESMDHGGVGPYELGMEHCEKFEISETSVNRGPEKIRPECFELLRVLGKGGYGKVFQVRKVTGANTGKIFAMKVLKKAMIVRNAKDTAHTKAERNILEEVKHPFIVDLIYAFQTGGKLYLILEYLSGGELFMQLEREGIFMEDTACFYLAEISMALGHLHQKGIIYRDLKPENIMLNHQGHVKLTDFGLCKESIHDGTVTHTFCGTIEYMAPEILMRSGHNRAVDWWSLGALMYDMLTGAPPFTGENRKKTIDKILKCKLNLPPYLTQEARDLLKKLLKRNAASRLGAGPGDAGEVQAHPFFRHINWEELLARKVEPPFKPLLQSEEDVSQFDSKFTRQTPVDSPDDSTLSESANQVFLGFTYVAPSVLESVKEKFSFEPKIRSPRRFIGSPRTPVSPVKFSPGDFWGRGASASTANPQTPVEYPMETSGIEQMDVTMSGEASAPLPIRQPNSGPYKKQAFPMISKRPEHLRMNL
Eukaryotic translation initiation factor 2-alpha kinase 1, sequence (Q9BQI3 whole entry): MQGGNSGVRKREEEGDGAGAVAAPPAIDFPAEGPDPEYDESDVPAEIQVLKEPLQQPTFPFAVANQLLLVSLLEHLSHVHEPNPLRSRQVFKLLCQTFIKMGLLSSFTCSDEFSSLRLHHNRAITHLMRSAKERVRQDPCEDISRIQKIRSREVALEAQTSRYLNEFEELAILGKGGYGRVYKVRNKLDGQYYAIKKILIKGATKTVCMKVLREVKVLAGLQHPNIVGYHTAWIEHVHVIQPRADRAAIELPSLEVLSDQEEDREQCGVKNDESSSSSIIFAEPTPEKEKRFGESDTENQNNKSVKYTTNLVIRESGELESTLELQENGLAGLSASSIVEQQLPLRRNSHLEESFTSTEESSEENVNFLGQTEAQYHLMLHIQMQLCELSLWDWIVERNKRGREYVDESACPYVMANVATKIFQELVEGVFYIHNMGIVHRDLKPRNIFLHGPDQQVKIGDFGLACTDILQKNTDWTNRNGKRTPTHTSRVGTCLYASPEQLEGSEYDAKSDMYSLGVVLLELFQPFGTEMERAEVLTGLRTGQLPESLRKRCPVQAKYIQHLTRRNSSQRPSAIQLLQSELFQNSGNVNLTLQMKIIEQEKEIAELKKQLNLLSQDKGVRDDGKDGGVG
Mitogen-activated protein kinase 1, sequence (P28482 whole entry): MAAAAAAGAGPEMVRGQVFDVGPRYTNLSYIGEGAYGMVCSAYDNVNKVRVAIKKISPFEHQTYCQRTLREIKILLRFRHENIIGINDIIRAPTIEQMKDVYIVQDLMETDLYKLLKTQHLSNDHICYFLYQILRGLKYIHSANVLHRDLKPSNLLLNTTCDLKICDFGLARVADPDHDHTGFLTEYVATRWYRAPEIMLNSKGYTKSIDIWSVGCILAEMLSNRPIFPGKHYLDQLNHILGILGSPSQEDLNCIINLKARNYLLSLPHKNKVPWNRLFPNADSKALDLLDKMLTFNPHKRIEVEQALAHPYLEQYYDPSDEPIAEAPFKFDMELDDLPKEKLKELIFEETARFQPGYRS
Activin receptor type-2B, sequence (Q13705 whole entry): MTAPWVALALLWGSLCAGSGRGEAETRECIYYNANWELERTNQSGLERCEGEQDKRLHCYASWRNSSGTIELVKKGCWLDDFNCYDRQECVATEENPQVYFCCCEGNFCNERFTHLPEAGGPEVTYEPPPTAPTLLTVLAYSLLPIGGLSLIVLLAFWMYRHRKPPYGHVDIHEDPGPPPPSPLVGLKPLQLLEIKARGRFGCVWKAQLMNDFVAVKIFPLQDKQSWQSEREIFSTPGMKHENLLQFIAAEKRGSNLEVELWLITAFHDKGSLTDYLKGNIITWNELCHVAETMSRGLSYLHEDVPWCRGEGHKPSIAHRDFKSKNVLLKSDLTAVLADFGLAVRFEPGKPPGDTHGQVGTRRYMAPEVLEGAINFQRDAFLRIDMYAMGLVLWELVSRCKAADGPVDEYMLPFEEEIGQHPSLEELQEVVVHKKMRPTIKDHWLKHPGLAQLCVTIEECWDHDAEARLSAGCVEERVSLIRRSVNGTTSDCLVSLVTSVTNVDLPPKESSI
U5 small nuclear ribonucleoprotein 200 kDa helicase, sequence (O75643 whole entry): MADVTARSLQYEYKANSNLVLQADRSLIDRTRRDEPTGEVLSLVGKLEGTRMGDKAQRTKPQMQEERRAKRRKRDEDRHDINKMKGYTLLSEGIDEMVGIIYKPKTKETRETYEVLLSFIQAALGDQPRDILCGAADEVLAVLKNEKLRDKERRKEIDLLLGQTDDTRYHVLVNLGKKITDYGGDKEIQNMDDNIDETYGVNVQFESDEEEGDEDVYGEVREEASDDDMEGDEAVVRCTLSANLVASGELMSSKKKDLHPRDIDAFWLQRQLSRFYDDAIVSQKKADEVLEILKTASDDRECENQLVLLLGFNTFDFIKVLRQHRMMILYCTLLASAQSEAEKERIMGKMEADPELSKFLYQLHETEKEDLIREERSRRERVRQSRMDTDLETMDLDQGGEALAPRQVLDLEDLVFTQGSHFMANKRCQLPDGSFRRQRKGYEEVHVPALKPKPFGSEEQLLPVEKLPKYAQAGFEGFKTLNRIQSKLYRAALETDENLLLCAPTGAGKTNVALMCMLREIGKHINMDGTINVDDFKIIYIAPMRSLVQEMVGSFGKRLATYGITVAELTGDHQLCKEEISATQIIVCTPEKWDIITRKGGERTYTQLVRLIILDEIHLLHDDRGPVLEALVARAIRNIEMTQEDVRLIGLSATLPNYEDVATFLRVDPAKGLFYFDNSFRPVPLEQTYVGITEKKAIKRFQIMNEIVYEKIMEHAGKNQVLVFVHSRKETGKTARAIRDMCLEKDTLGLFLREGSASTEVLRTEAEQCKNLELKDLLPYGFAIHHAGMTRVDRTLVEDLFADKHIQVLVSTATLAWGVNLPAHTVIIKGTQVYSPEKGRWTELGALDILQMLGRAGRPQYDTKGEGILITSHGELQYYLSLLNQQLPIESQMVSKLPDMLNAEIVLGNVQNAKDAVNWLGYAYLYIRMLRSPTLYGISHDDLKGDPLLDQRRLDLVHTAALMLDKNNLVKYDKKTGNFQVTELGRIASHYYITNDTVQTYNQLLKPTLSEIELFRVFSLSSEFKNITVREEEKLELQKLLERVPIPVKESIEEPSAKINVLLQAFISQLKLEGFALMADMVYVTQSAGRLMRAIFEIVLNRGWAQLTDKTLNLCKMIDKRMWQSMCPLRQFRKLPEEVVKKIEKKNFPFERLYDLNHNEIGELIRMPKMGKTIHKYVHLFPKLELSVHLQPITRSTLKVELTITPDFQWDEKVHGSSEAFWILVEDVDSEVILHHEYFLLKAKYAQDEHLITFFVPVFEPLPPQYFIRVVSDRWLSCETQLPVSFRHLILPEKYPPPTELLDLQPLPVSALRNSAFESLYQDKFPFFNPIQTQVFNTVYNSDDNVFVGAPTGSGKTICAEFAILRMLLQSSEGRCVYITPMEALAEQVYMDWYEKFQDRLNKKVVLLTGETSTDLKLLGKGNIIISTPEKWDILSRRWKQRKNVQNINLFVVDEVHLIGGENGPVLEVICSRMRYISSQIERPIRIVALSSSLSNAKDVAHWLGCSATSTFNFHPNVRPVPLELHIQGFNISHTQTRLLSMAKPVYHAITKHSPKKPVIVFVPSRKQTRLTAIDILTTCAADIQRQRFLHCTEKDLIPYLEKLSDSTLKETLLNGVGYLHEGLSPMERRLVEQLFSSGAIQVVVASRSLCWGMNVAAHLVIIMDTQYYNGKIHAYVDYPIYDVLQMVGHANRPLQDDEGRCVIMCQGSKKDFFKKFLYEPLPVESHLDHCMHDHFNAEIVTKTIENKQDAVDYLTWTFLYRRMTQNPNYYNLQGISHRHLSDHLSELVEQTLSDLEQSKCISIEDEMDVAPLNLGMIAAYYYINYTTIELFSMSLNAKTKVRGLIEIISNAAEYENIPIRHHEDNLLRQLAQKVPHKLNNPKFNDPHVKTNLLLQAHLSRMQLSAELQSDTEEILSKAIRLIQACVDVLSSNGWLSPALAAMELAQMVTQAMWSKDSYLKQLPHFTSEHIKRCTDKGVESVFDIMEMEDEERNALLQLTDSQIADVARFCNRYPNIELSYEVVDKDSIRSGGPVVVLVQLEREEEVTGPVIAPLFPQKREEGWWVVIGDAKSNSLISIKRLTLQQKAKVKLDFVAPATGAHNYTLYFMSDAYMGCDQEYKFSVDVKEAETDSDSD

O=c1sn(-c2cccc3ccccc23)c(=O)n1Cc1ccccc1 [TIDEGLUSIB]
inactive: [1] > 30 µM | [2] > 30 µM | [3] > 30 µM | [4] > 30 µM | [5] > 30 µM | [6] > 30 µM | [7] > 30 µM | [8] > 30 µM | [9] > 30 µM | [10] > 30 µM

CN(C)C(=O)c1cc2cnc(Nc3ccc(N4CCNCC4)cn3)nc2n1C1CCCC1 [RIBOCICLIB]
inactive: [1] > 30 µM | [2] > 30 µM | [3] > 30 µM | [4] > 30 µM | [5] > 30 µM | [6] > 30 µM | [7] > 30 µM | [8] > 30 µM | [9] > 30 µM | [10] > 30 µM
